In PubChem BioAssay AID1963850 (Molecular Pharmacology Branch, DTP, NCI, 2024):

System: 192522-019-R-J2-PDC complex tumor spheroid viability
Test: Anticancer human tumor 192522-019-R-J2-PDC patient-derived colon adenocarcinoma cell line growth inhibition [POLQ]
Settings: for IC50: curve of first compound; for viability, T/C: stronger effect = lower value
Experimental: Multicellular complex tumor spheroid response to Polymerase (POL) inhibitors (novobiocin, ART-558, RP6685) in combination with a variety of drugs and investigational agents in selected tumor cell lines
The POL inhibitors (novobiocin, ART-558, and RP6685) were evaluated both individually and in combination with standard of care and investigational anticancer small molecules within a complex spheroid model of solid tumors. . Complex spheroids include a stromal component modeled by human endothelial cells (HUVEC) and fibroblasts modeled by human mesenchymal stem cells (MSCs). The concentration ranges selected for each drug and investigational agent were based upon clinically achievable concentrations if the clinical Cmax of the agent was known.
Compounds. The drugs and investigational agents: novobiocin (NSC847541), ART-558 (NSC835418), RP-6685 (NSC848927), peposertib (NSC802822), ceralasertib (NSC780249), elimusertib (NSC800525), camonsertib (NSC841442), AZD-1390 (NSC803789), olaparib (NSC753686), talazoparib (NSC767125), rucaparib (NSC756644), sotorasib (NSC818433), MRTX-1133 (NSC836407), SN-38 (NSC673596), topotecan (NSC609699), epotoside (NSC141540), doxorubicin (NSC123127), gemcitabine (NSC613327), 5-fluorouracil (NSC19893), paclitaxel (NSC125973), vemurafenib (NSC761431), MSA-2 (NSC828583), SN-011 (NSC837082), adavosertib (NSC754352), prexasertib (NSC758257), carboplatin (NSC241240) and oxaliplatin (NSC266046), were obtained from the National Cancer Institute (NCI) Developmental Therapeutics Program Chemical Repository (21). The FDA-approved anticancer drug set is available from the Developmental Therapeutics Program at https://dtp.cancer.gov/organization/dscb/obtaining/. […] The stock solutions were prepared in dimethyl sulfoxide (DMSO, Sigma-Aldrich, St. Louis, MO, cat. D2650), except for the platinum compounds which were prepared in saline (Quality Biological, Gaithersburg, MD, cat. 114-055-101), at 800-fold the tested concentration and stored at -70 degrees C prior to their use. All drugs and investigational agents were tested over a range starting from a high concentration at or near the clinical Cmax and decreasing in half-log increments. If the clinical Cmax for an agent had not been determined, the highest concentration tested was 10 microM, except for SN-38, which was tested at a high concentration of 1 microM.
Cell Culture. All cells were maintained in an incubator at 37 degrees C and 5% CO2 with 95% humidity. The PDC lines were cultured according to standard operating procedures established by the NCI PDMR (https://pdmr.cancer.gov). Table 3 of the manuscript, lists the cell lines along with the number of the three cell types plated to form the mct-spheroids and media for tumor cell growth. After thawing, all PDC lines, except 997537-175-T-J1-PDC and 415267-285-R-J2-PDC, were cultured in Matrigel-coated flasks prepared with a working solution of 1X Ham's F-12 nutrient mix, without supplementation (Thermo Fisher Scientific, cat. 11765054), 100 U/mL penicillin-streptomycin (Thermo Fisher Scientific, cat. 15140122), and 2.5% Matrigel (Corning Inc., Corning, NY, cat. 354248) for the first three passages. The two PDC lines 997537-175-T-J1-PDC and 415267-285-R-J2-PDC were cultured on uncoated flasks. The 857933-349-R-J2-PDC line was cultured in 6C/Colon 1B media containing advanced DMEM/F-12 (Thermo Fisher Scientific, cat. 12634028), 10 mM HEPES (Thermo Fisher Scientific, cat. 15630080), 1X GlutaMAX supplement (Thermo Fisher Scientific, cat. 35050061), 0.1 mg/mL primocin (InvivoGen, San Diego, CA, cat. ant-pm-2), 10% defined fetal bovine serum, heat inactivated (HyClone Laboratories Inc., Logan, UT, cat. SH30070.03HI), 50% L-WRN conditioned media (ATCC, cat. CRL-3276), 1.25 mM N-Acetyl-L-cysteine (Sigma-Aldrich, cat. A9165), 10 mM nicotinamide (Sigma-Aldrich, cat. N0636), 1X B-27 supplement (Thermo Fisher Scientific, cat. 17504044), 1X N-2 supplement (Thermo Fisher Scientific, cat. […]

[1] = second compound 0.0316 µM, first compound 0.0316 µM
[2] = second compound 0.0316 µM, first compound 0.1 µM
[3] = second compound 0.1 µM, first compound 0.0316 µM
[4] = second compound 0.1 µM, first compound 0.1 µM
[5] = second compound 0.316 µM, first compound 0.0316 µM
[6] = second compound 0.316 µM, first compound 0.1 µM
[7] = second compound 1 µM, first compound 0.0316 µM
[8] = second compound 1 µM, first compound 0.1 µM
[9] = second compound 3.16 µM, first compound 0.0316 µM
[10] = second compound 3.16 µM, first compound 0.1 µM
[11] = second compound 10 µM, first compound 0.0316 µM
[12] = second compound 10 µM, first compound 0.1 µM
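Also: spheroids exposed to drugs for seven days before reading.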
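For viability, T/C in this document: 100% = DMSO vehicle control viability in luminescence.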

SMILES: CC(C)n1c(=O)n(C)c2cnc3cc(F)c(-c4ccc(OCCCN5CCCCC5)nc4)cc3c21 + Nc1ccc(C#CCN(C(=O)Cc2ncc(C(F)(F)F)cc2C(F)(F)F)c2ccc(F)cc2)nn1
- IC50 (second compound 0.0316 µM): > 10 µM
- IC50 (second compound 0.1 µM): > 10 µM
- IC50 (second compound 0.316 µM): > 10 µM
- IC50 (second compound 1 µM): > 10 µM
- IC50 (second compound 3.16 µM): > 10 µM
- IC50 (second compound 10 µM): > 10 µM
- viability, T/C [1]: 104%
- viability, T/C [2]: 97.6%
- viability, T/C (second compound 0.0316 µM, first compound 0.316 µM): 110%
- viability, T/C (second compound 0.0316 µM, first compound 1 µM): 118%
- viability, T/C (second compound 0.0316 µM, first compound 3.16 µM): 124%
- viability, T/C (second compound 0.0316 µM, first compound 10 µM): 101%
- viability, T/C [3]: 100%
- viability, T/C [4]: 112%
- viability, T/C (second compound 0.1 µM, first compound 0.316 µM): 119%
- viability, T/C (second compound 0.1 µM, first compound 1 µM): 134%
- viability, T/C (second compound 0.1 µM, first compound 3.16 µM): 122%
- viability, T/C (second compound 0.1 µM, first compound 10 µM): 94%
- viability, T/C [5]: 113%
- viability, T/C [6]: 105%
- viability, T/C (second compound 0.316 µM, first compound 0.316 µM): 110%
- viability, T/C (second compound 0.316 µM, first compound 1 µM): 118%
- viability, T/C (second compound 0.316 µM, first compound 3.16 µM): 123%
- viability, T/C (second compound 0.316 µM, first compound 10 µM): 111%
- viability, T/C [7]: 104%
- viability, T/C [8]: 118%
- viability, T/C (second compound 1 µM, first compound 0.316 µM): 122%
- viability, T/C (second compound 1 µM, first compound 1 µM): 138%
- viability, T/C (second compound 1 µM, first compound 3.16 µM): 137%
- viability, T/C (second compound 1 µM, first compound 10 µM): 111%
- viability, T/C [9]: 116%
- viability, T/C [10]: 104%
- viability, T/C (second compound 3.16 µM, first compound 0.316 µM): 116%
- viability, T/C (second compound 3.16 µM, first compound 1 µM): 127%
- viability, T/C (second compound 3.16 µM, first compound 3.16 µM): 120%
- viability, T/C (second compound 3.16 µM, first compound 10 µM): 112%
- viability, T/C [11]: 105%
- viability, T/C [12]: 104%
- viability, T/C (second compound 10 µM, first compound 0.316 µM): 117%
- viability, T/C (second compound 10 µM, first compound 1 µM): 127%
- viability, T/C (second compound 10 µM, first compound 3.16 µM): 127%
- viability, T/C (second compound 10 µM, first compound 10 µM): 114%

SMILES: Cn1ncnc1[C@H]1c2n[nH]c(=O)c3cc(F)cc(c23)N[C@@H]1c1ccc(F)cc1 + Nc1ccc(C#CCN(C(=O)Cc2ncc(C(F)(F)F)cc2C(F)(F)F)c2ccc(F)cc2)nn1
- IC50 (second compound 0.0316 µM): > 0.1 µM
- IC50 (second compound 0.1 µM): > 0.1 µM
- IC50 (second compound 0.316 µM): > 0.1 µM
- IC50 (second compound 1 µM): > 0.1 µM
- IC50 (second compound 3.16 µM): > 0.1 µM
- IC50 (second compound 10 µM): > 0.1 µM
- viability, T/C (second compound 0.0316 µM, first compound 0.000316 µM): 101%
- viability, T/C (second compound 0.0316 µM, first compound 0.001 µM): 108%
- viability, T/C (second compound 0.0316 µM, first compound 0.00316 µM): 101%
- viability, T/C (second compound 0.0316 µM, first compound 0.01 µM): 104%
- viability, T/C [1]: 99.4%
- viability, T/C [2]: 98.9%
- viability, T/C (second compound 0.1 µM, first compound 0.000316 µM): 108%
- viability, T/C (second compound 0.1 µM, first compound 0.001 µM): 100%
- viability, T/C (second compound 0.1 µM, first compound 0.00316 µM): 107%
- viability, T/C (second compound 0.1 µM, first compound 0.01 µM): 110%
- viability, T/C [3]: 113%
- viability, T/C [4]: 91.4%
- viability, T/C (second compound 0.316 µM, first compound 0.000316 µM): 107%
- viability, T/C (second compound 0.316 µM, first compound 0.001 µM): 95.4%
- viability, T/C (second compound 0.316 µM, first compound 0.00316 µM): 97.9%
- viability, T/C (second compound 0.316 µM, first compound 0.01 µM): 108%
- viability, T/C [5]: 111%
- viability, T/C [6]: 102%
- viability, T/C (second compound 1 µM, first compound 0.000316 µM): 119%
- viability, T/C (second compound 1 µM, first compound 0.001 µM): 109%
- viability, T/C (second compound 1 µM, first compound 0.00316 µM): 102%
- viability, T/C (second compound 1 µM, first compound 0.01 µM): 99.9%
- viability, T/C [7]: 105%
- viability, T/C [8]: 114%
- viability, T/C (second compound 3.16 µM, first compound 0.000316 µM): 102%
- viability, T/C (second compound 3.16 µM, first compound 0.001 µM): 107%
- viability, T/C (second compound 3.16 µM, first compound 0.00316 µM): 109%
- viability, T/C (second compound 3.16 µM, first compound 0.01 µM): 106%
- viability, T/C [9]: 105%
- viability, T/C [10]: 104%
- viability, T/C (second compound 10 µM, first compound 0.000316 µM): 108%
- viability, T/C (second compound 10 µM, first compound 0.001 µM): 114%
- viability, T/C (second compound 10 µM, first compound 0.00316 µM): 109%
- viability, T/C (second compound 10 µM, first compound 0.01 µM): 99.2%
- viability, T/C [11]: 99.2%
- viability, T/C [12]: 107%
